# Tests used:
# GBM9 cells [1] = experiment: Cell proliferation by cell counting (trypan blue dye exclusion); format: cell-based, human; details: 72 hours
# Description: FIG. 15A GBM9 cells were plated in 6 well plated and treated with drugs as indicated. Cell proliferation was measured through cell counting using the trypan blue dye exclusion test. […] Erlotinib vs erlotinib+SP: P=0.0016, t=7.60, d.f.=4; Erlotinib vs erlotinib+U: P=0.0012, t=8.24, d.f.=4.
# [2] = system: U87EGFRwt and U87EGFRvIII cells; experiment: AlamarBlue cell viability assay, established GBM cell lines; format: cell-based, human; details: established GBM cell lines expressing EGFRwt or EGFRvIII, erlotinib 10 μM
# Description: (§1) Cell viability assay was conducted using AlamarBlue cell viability assay kit (ThermoFisher) following manufacturer's protocol. Cells were cultured in Corning 96-well black plates with clear bottom (5000 cells/well). Drugs were added to cells for 72 hour following detection using POLARstar Omega Microplate Reader (excitation at 544 nm and emission at 590 nm) (BMG LABTECH, Germany).
# [3] = system: GBM9 and GBM39 neurospheres; experiment: AlamarBlue cell viability assay, patient derived GBM neurospheres; format: cell-based, human; details: 72 h
# Description: as §1
# JNK, Axl and ERK = experiment: Signal transduction in subcutaneous GBM9 tumors; format: in vivo, mice
# Description: (§2) To detect the in vivo levels of TNF, 1×10^6 GBM9 cells were injected into the right flanks of nude mice. When the subcutaneous tumor reached a volume of around 200 mm^3, the mice were treated with erlotinib to monitor the upregulation of TNF protein. The animals were dosed consecutively for 1, 2, 7 or 14 days and then sacrificed. The animals without treatment were considered as control (0-day treatment). Tumor tissues were rinsed in PBS and protein was extracted to analyze the TNF levels using ELISA and also used for western blot. To detect the protein expression in mice brain tumor tissues upon drug treatment, the same procedure was performed in orthotopic models. Additionally, with orthotopic models, mice were divided into four groups (control gavage group, erlotinib group, thalidomide group and erlotinib plus thalidomide, n=3). After 48 hours treatment tumors were harvested and subjected to Western blot and immunostaining.
# ERK = experiment: Western blot, ERK activation (pERK) in glioma cells; details: GBM9 neurospheres
# Description: Western blot analysis was performed according to standard protocols. In all experiments, before the addition of EGF or erlotinib established cells were cultured overnight in serum free DMEM and primary GBM neurospheres were EGF starved overnight. Cells not treated with EGF or erlotinib were also serum or EGF starved.
# GBM9 intracranial tumors = experiment: Orthotopic (intracranial) GBM9 model, survival and bioluminescence imaging; details: erlotinib 50 mg/kg oral gavage and/or thalidomide 150 mg/kg i.p., 10 days; repeated with afatinib
# Description: For the orthotropic model, 1×10^5 GBM9 cells expressing firefly luciferase were injected into the right corpus striatum of the brains of 6-8-week-old nude mice using a stereotactic frame. […] The mice were treated with erlotinib 50 mg/kg by oral gavage and/or intraperitoneal (i.p.) injection of 150 mg/kg thalidomide for 10 consecutive days. Bioluminescence imaging (BLI) was performed to record the growth of tumor every 5 days. Kaplan-Maier survival curves were calculated using GraphPad Prism 7.0 software. Mice were monitored and sacrificed when neurological signs appeared or after 40 days.
# GBM9 cells [4] = experiment: Annexin-FACS assay and Caspase 3/7 activation; format: cell-based, human; details: Annexin V flow cytometry and Caspase 3/7 activation
# Description: Annexin assay was performed by using Annexin—V-FLUOS Staining kit (Roche applied Science). Cells (1×10^6) were plated in 6 well plates and treated with drugs or vehicle alone. After 72 hours cells were trypsinized and washed 2 times with 1×PBS. The cells were incubated for 15 minutes at room temperature with Propidium Iodide and Annexin—V-FLUOS labeling solution in incubation buffer. Annexin and/or PI positive cells were detected by Flow Cytometry.
# Caspase activity in the supernatant was measured using the Caspase-Glo 3/7 Assay (Promega, G8091) following manufacturer's instructions. Briefly, 72 hours after treatments, cells were washed by cold PBS and total cell lysates were prepared. 50 μg of total protein per sample was added per well of a 96 well plate and was incubated with 100 μl Caspase 3/7 reagent for 30 minutes. The luminescence of each sample was measured using a luminometer. All experiments included at least 3 replicates per group and were repeated 3 times.
# [5] = Toxicity and body weight of treated tumor-bearing mice; details: in combination with thalidomide or SP600125, total of 10 days
# Akt, STAT3 = experiment: Western blot, Akt and STAT3 activation in glioma cells; format: cell-based, human
# Description: (§3) Western blot analysis was performed according to standard protocols.
# [6] = system: NF-κB transcriptional activity; experiment: NF-κB luciferase reporter assay; format: cell-based, human; details: erlotinib 24 h, 100 nM GBM9, 1 uM U87EGFRwt; LPS 1 μg/ml
# Description: (§4) Cells were plated in 48 well dishes to 70%-80% confluence followed by with […] or 3xAP1pGL3 reporter plasmid using lipofectamine 2000. A dual-luciferase reporter assay system was used according to manufacturer's instructions (Promega, Madison WI). Firefly luciferase activity was measured in a luminometer and normalized on the basis of Renilla luciferase activity. Experiments were done in triplicate and 3 independent experiments were done.
# TNF = TNF ELISA on GBM9 xenograft tumor extracts; format: in vivo, mice
# Description: as §2
# [7] = system: AP-1 transcriptional activity; experiment: AP-1 luciferase reporter assay; format: cell-based, human; details: erlotinib 1 μM, 24 h; GBM9 and U87EGFRwt cells
# Description: as §4
# GAS6 promoter = experiment: ChIP assay, c-Jun on the GAS6 promoter; format: cell-based, human; details: erlotinib 1 μM, 24 h; GBM9 and U87EGFRwt cells
# Description: GBM9 and U87EGFRwt cells were cultured in 15 cm plate per reaction for assay. ChIP assays were carried out using ChIP chromatin immunoprecipitation kit (Millipore) following manufacturer's instructions. The ChIP-enriched DNA samples were quantified by PCR using Platinum Taq DNA polymerase (Invitrogen). Putative AP-1 binding sites on GAS6 promoter were predicted by Using TFBIND program. The following primer pairs covering AP-1 sites were used: 5′-[…]-3′ (SEQ ID NO:1) and 5′-[…]-3′ (SEQ ID NO:2).
# [8] = mouse, in vivo
# JNK = experiment: Western blot, JNK activation (phosphorylation of JNK) in glioma cells; format: cell-based, human; details: erlotinib; patient derived neurospheres and established GBM cell lines
# Description: as §3
# GBM = details: human, in vivo; cited from earlier work
smiles,measurement,setting,value
C#Cc1cccc(Nc2ncnc3cc(OCCOC)c(OCCOC)cc23)c1 [erlotinib],"Cell growth / cell numbers, combination with erlotinib",GBM9 cells [1],significant decreases in cell numbers
same,"Cell viability, erlotinib alone",[2],completely resistant
same,"Cell viability, erlotinib alone at low concentration",[3]; erlotinib 100 nM,resistant to EGFR inhibition
same,"Cell viability, erlotinib alone at 1 μM",[3]; erlotinib 1 μM,significant cell death
same,Time at which JNK-ERK-Axl activation subsides in GBM xenograft tumors,"JNK, Axl and ERK; erlotinib",about 2 weeks
same,"Erlotinib induced activation of JNK, Axl and ERK in mouse tumors","JNK, Axl and ERK; subcutaneous GBM9 tumors, erlotinib 50 mg/kg",peaking around 2-7 days and subsiding by 14 days
same,ERK activation after addition of erlotinib,"ERK; erlotinib 1 μM, early time points",decreased after addition of erlotinib
same,Feedback reactivation of ERK under continued EGFR inhibition,ERK; erlotinib 1 μM or afatinib 100 nM,reactivation of ERK is seen at 24-48 h
same,Survival of mice,GBM9 intracranial tumors,neither erlotinib nor thalidomide alone had a significant effect
same,"Mode of cell death, erlotinib combined with Axl, JNK, ERK or TNF inhibition",GBM9 cells [4],apoptotic cell death
same,Short term toxicity,[5],without significant immediate short term toxicity
same,Akt or STAT3 activation,"Akt, STAT3; GBM9 neurospheres, erlotinib 1 μM",did not detect an increase in Akt or STAT3 activation
same,STAT3 and Akt activation at higher concentration,"Akt, STAT3; glioma cells, erlotinib 10 μM or afatinib 10 μM",STAT3 and Akt activation are suppressed
same,NF-κB reporter / transcriptional activity,[6],does not result in an increase in NF-κB reporter activity
same,TNF level in subcutaneous mouse tumors,"TNF; GBM9 flank tumors, erlotinib 50 mg/kg",increase in TNF can be detected 1 day after administration of erlotinib
same,Time to upregulation of TNF in GBM xenograft tumors,TNF; erlotinib,about 24 hours
same,AP-1 reporter activity,[7],increased activity of the AP-1 reporter
same,Binding of c-Jun to the GAS6 promoter,GAS6 promoter,binding of cJun to the GAS6 promoter
same,Body weight of orthotopic models,[8],Body weight losses
same,JNK activation (phosphorylation of JNK),JNK,activation of INK
same,Clinical efficacy in GBM patients,GBM,also not effective
